The source of these data is PMC6199279, “Design of Peptoid-peptide Macrocycles to Inhibit the β-catenin TCF Interaction in Prostate Cancer” (Nature Communications, 2018).

Numbered stars: 1 amine (or outer) side, 2 acyl side, 3 side chain; on linkers, the order of the positions; unused ones are H or OH. Square brackets hold non-standard residues; d marks the D form. Peptide text beside a SMILES is read from it. N(2-(2-PhOPh)Et)Gly = O=C(O)CNCCc1ccccc1Oc1ccccc1; Gly(N-3,5-(OMe)2-Ph) = COc1cc(NCC(=O)O)cc(OC)c1; X1 = COc1ccc([C@H](C)N(CC(=O)[*:2])[*:1])cc1; N((CH2)3OiPr)Gly = CC(C)OCCCNCC(=O)O

One series has as its target T1, β-catenin (Homo sapiens, UniProt P35222).
T1 construct: His6-β-catenin armadillo domain, AA134-668; made in house; host or cells: E. coli BL21 DL3 (NEB)
T1 sequence (P35222 134-668): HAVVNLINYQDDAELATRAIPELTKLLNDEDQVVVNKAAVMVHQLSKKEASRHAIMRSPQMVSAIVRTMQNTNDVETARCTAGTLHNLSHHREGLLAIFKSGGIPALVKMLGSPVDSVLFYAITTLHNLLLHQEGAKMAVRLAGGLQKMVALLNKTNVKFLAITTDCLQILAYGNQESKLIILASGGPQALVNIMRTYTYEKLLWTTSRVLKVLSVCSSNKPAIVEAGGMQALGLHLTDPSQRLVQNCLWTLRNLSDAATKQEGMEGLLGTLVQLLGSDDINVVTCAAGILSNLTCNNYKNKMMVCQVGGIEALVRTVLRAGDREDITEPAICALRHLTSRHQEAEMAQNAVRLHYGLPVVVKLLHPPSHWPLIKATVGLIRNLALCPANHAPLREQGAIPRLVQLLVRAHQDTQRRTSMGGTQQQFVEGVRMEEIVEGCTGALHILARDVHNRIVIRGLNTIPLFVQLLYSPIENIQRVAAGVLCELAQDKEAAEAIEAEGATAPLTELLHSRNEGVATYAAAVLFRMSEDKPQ
Description: Dynamic light scattering of β-catenin. Type of series: binding. As to conditions: 10 µM compound vs 1% DMSO vehicle. The protocol:
(§1) We next characterized the dose response curves for compound 13 in the Wnt and AR luciferase reporters. The linear version of 13 (linear 13: NH2-|N-mpp, N-dmp, N-ipp, N-Smpe, N-Smpe, D-Ala|-OH) was used as a control compound. […] To test direct binding, we pre-formed dynamic light scattering (DLS) with β-catenin in the presence of vehicle, compound 13, and α-cyclodextrin. […] HEK293 cells were transiently transfected with a plasmid expressing full length, myc-tagged TCF4. After 48 h treatment with either vehicle (DMSO) or 10 µM 13, cells were lysed and myc-TCF4 protein was immunoprecipitated.

For series [1], the system named is TOP-Flash Wnt luciferase reporter. Description: TOP-Flash Wnt luciferase reporter assay in LNCaP-abl cells. In kind it is cell-based. The note with it: for Effect of control Wnt inhibitors on the Wnt luciferase reporter: dose response, commercially available inhibitors (Supplementary Fig. 5).
From the text: (§2) Using a TOP-Flash Wnt luciferase reporter, we tested the 12 oligomers identified from in silico modeling for inhibitory activity (Fig. 2b). […] We also employed a 3 × -Androgen Response Element (ARE) luciferase reporter to measure the effect on AR activity. […] As additional controls, we obtained previously developed, commercially available Wnt inhibitors and tested them in the Wnt luciferase assay (Supplementary Fig. 5).
as §1
LNCaP-abl and LNCaP-95 cells were cultured in indicator free RPMI 1640 media (Life) supplemented with 10% charcoal stripped FBS, 1% pennicillin/streptomycin, and 1% L-Glutamine. HEK-293 Cells were cultured in DMEM media (Life) supplemented with 10%FBS and 1% pennicillin/streptomycin. A549 and U2OS cells were cultured in RPMI 1640 media (Life) and McCoy’s 5 A modified media (Life), respectively, both supplemented with 10%FBS and 1% pennicillin/streptomycin. LNCaP-abl, and LNCaP-95 cell lines were generous gifts from Z. Culig (Innsbruck Medical University, Austria) and J. Isaacs (Johns Hopkins University, Baltimore, MD), respectively. Cell lines were authenticated by STR profiling (Genetica Cell Line Testing; Burlington, NC). A549 and U2OS were purchased from ATCC (product numbers CCL-185 and HTB-96). Cell lines were routinely screened for mycoplasma. Luciferase assays were conducted using stably transfected TOP-flash and 3xARE LNCaP-abl cell lines. For the Wnt pathway, TOP-Flash LNCaP-abl cells were treated with 1 nM siAPC (a 1:1:1 mix of Ambion Silencer Silect siAPC RNA, ID#s s1433, s1434, s1435) for 24 h and seeded into 384-well plates at 5000 cells/well, followed by 24 h of treatment with compound. For the AR-pathway, 3xARE LNCaP-abl cells were seeded into 384-well plates at 5000 cells per well, treated for 48 h with compound, with the addition of R1881 for the final 8 h. Both were measured using the ONE-Glo detection kit (Promega) and data is standardized to CellTiter-Fluor (Promega) viability readings to account for potential variations in well to well cell number. Control Wnt inhibitors were purchased from Sigma with the exception of PRI-724 which was purchased from Selleckchem. Co-immunoprecipitation was carried out using HEK293 cells transfected with either myc-TCF (addgene #32738) or myc-TCF dominant negative (addgene #32739) followed by 48 h of treatment with compound. Cells were lysed using Triton lysis buffer and 1 mg total protein was incubated overnight at 4 C with 40 µl anti-cMyc magnetic beads (Thermo). Total protein concentration in cell lysates were determined using Pierce Rapid Gold BCA Protein Assay Kit (Thermo). The beads were washed 3× with lysis buffer then boiled in 2X sample loading dye. SDS-PAGE and western blotting were performed using anti-Myc (CST 2276) and anti-β-catenin (CST 8480). Both antibodies were diluted in blocking buffer 1:1000 and incubated overnight at 4 C with the membrane. […]
For orientation: A reporter such as luciferase makes a cellular process visible.

The test system of series [2] is AR luciferase reporter (3xARE). Put plainly: 3x-Androgen Response Element (ARE) luciferase reporter assay in LNCaP-abl cells. Type of series: cell-based. The note with it: 3xARE LNCaP-abl cells, 48 h compound, androgen-activated; read-out: IC50 for inhibition of the AR luciferase reporter.
From the text: as §2, §1
LNCaP-abl and LNCaP-95 cells were cultured in indicator free RPMI 1640 media (Life) supplemented with 10% charcoal stripped FBS, 1% pennicillin/streptomycin, and 1% L-Glutamine. HEK-293 Cells were cultured in DMEM media (Life) supplemented with 10%FBS and 1% pennicillin/streptomycin. A549 and U2OS cells were cultured in RPMI 1640 media (Life) and McCoy’s 5 A modified media (Life), respectively, both supplemented with 10%FBS and 1% pennicillin/streptomycin. LNCaP-abl, and LNCaP-95 cell lines were generous gifts from Z. Culig (Innsbruck Medical University, Austria) and J. Isaacs (Johns Hopkins University, Baltimore, MD), respectively. Cell lines were authenticated by STR profiling (Genetica Cell Line Testing; Burlington, NC). […] Both were measured using the ONE-Glo detection kit (Promega) and data is standardized to CellTiter-Fluor (Promega) viability readings to account for potential variations in well to well cell number. […] Total protein concentration in cell lysates were determined using Pierce Rapid Gold BCA Protein Assay Kit (Thermo). […]

Series [3] deals with Wnt signaling in zebrafish embryos. As to conditions: 50 µl of 30 µM compound added at ~5.5 hpf, BIO added about 30 min later; eight fish per group.
Description: To evaluate the efficacy of 13 in vivo, we utilized a Danio rerio (zebrafish) model. […] To test this, BIO was added to zebrafish embryos at 6 hpf with and without 13 as described in Fig. 6a.
The zebrafish phenotypic assay was conducted using wild-type zebrafish embryos seeded into a 96-well round bottom plate at 4 hpf in 50 µl of Fish Water (60 mg/l sea salt, Instant Ocean, Blacksburg, VA, USA) supplemented with 1 mg per L Methylene Blue (Sigma-Aldrich). The embryos were not dechorionated. At 50% epiboly, roughly 5.5 hpf, 50 µl of 30 µM 13 or Linear 13 was added. About 30 min later at shield stage, 50 µl of 6 nM (3×) BIO was added. The embryos were then visualized for the presence of eyes and imaged at 30 hpf. Zebrafish embryos were randomly assigned to non-blinded treatment groups, none were excluded. Sample size was determined with a power calculation to achieve statistical significance (alpha = 0.05, beta = 0.2) if only 60% of the fish had developed eyes.
Details of series [4]: method as in PMID 24019458. The note with it: mouse xenograft experiments, direct tumor injection required; cited from earlier work.

Turning to `OC[C@H]1O[C@@H]2O[C@H]3[C@H](O)[C@@H](O)[C@@H](O[C@H]4[C@H](O)[C@@H](O)[C@@H](O[C@H]5[C@H](O)[C@@H](O)[C@@H](O[C@H]6[C@H](O)[C@@H](O)[C@@H](O[C@H]7[C@H](O)[C@@H](O)[C@@H](O[C@H]1[C@H](O)[C@H]2O)O[C@@H]7CO)O[C@@H]6CO)O[C@@H]5CO)O[C@@H]4CO)O[C@@H]3CO` [α-cyclodextrin, reference compound], the “Shift in measured hydrodynamic radius of β-catenin (DLS)” value at β-catenin is “did not cause the same shift”.

In the case of `C[C@H]1[C@H]2N(C(=O)CN(C)N2C(=O)NCc2ccccc2)[C@@H](Cc2ccc(OP(=O)(O)O)cc2)C(=O)N1Cc1cccc2cccnc12` [PRI-724, reference compound], the “Effect of control Wnt inhibitors on the Wnt luciferase reporter” value in series [1] is on record as “did inhibit the luciferase reporter”.

Regarding `COc1ccc([C@H](C)N(CC(=O)N[C@H](C)C(=O)O)C(=O)CN(C(=O)CN(CCCOC(C)C)C(=O)CN(C(=O)CNCCc2ccccc2Oc2ccccc2)c2cc(OC)cc(OC)c2)[C@@H](C)c2ccc(OC)cc2)cc1` [linear 13, NH2-|N-mpp, N-dmp, N-ipp, N-Smpe, N-Smpe, D-Ala|-OH] (H-[N(2-(2-PhOPh)Et)Gly][Gly(N-3,5-(OMe)2-Ph)][N((CH2)3OiPr)Gly][X1][X1][dA]-OH), the IC50 (usually the concentration that inhibits the measured activity by half) was found to be 7.63 µM in series [2] and 3.27 µM in series [1] (TOP-Flash LNCaP-abl cells, siAPC knockdown, 24 h compound, ± SD of three replicates, read-out: IC50 for Wnt luciferase inhibition). The “Fish that developed eyes, BIO plus compound” value in series [3] is reported as 6/8.

`CCc1ccc(-c2nc(CSCC(=O)NCCc3ccccc3)c(C)o2)cc1` [iCRT3, reference compound]: the “Effect of control Wnt inhibitors on the Wnt luciferase reporter” value in series [1] was “did inhibit the luciferase reporter”. Besides, in series [4], the Systemic stability result is “not systemically stable”.
